For twelve molecules, melting point results are on record in patent US7544707B2, “Bicyclic derivatives as PPAR modulators” (Eli Lilly and Company, priority 2003, dated 2009).

SMILES strings stand for the structures.

In turn, `Cc1cc(SC(CCC(F)(F)F)c2cccc3c2cnn3-c2ccc(C(F)(F)F)cc2)ccc1OC(C)(C)C(=O)O` (racemic) [Example 88, (+/−)-2-Methyl-2-(2-methyl-4-{4,4,4-trifluoro-1-[1-(4-trifluoromethylphenyl)-1H-indazol-4-yl]butylsulfanyl}phenoxy)propionic Acid] came in with a melting point of 205 to 210 °C.

Take `CC(C)(Sc1ccc(OC(CCC(F)(F)F)c2cccc3c2cnn3-c2ccc(C(F)(F)F)cc2)cc1)C(=O)O` (racemic) [Example 89, (+/−)-2-Methyl-2-(4-{4,4,4-trifluoro-1-[1-(4-trifluoromethylphenyl)-1H-indazol-4-yl]butoxy}phenylsulfanyl)propionic Acid]: the melting point is above 260 °C.

Molecule `CC(C)(Oc1ccc(OC(CCC(F)(F)F)c2cccc3c2cnn3-c2ccc(C(F)(F)F)cc2)cc1)C(=O)O` (racemic) [Example 90, (+/−)-2-Methyl-2-(4-{4,4,4-trifluoro-1-[1-(4-trifluoromethylphenyl)-1H-indazol-4-yl]butoxy}phenoxy)propionic Acid] gave a melting point of 175 to 180 °C.

`Cc1cc(OC(c2ccccc2)c2cccc3c2cnn3-c2ccc(C(F)(F)F)cc2)ccc1OC(C)(C)C(=O)O` (racemic) [Example 91, (+/−)-2-Methyl-2-(2-methyl-4-{phenyl-[1-(4-trifluoromethylphenyl)-1H-indazol-4-yl]methoxy}phenoxy)propionic Acid] displayed a melting point of 140 to 145 °C.

Regarding `Cc1cc(SC(c2ccccc2)c2cccc3c2cnn3-c2ccc(C(F)(F)F)cc2)ccc1OC(C)(C)C(=O)O` (racemic) [Example 92, (+/−)-2-Methyl-2-(2-methyl-4-{phenyl-[1-(4-trifluoromethylphenyl)-1H-indazol-4-yl]methylsulfanyl}phenoxy)propionic Acid], the melting point is 181 to 186 °C.

`Cc1cc(SCc2cccc3cn(-c4ccc(C(F)(F)F)cc4)nc23)ccc1OCC(=O)O` [Example 1, 2-Methyl-4-[2-(4-trifluoromethylphenyl)-2H-indazol-7-ylmethylsulfanyl]phenoxyacetic Acid] returned a melting point of 79 to 81 °C.

`Cc1cc(SCc2cccc3cn(-c4ccc(C(F)(F)F)cc4)nc23)ccc1CCC(=O)O` [Example 2, 3-{2-Methyl-4-[2-(4-trifluoromethylphenyl)-2H-indazol-7-ylmethylsulfanyl]phenyl}propionic Acid]: the melting point lay in the range of 88 to 90 °C.

The molecule `CCc1cc(SCc2cccc3cn(-c4ccc(C(F)(F)F)cc4)nc23)ccc1OCC(=O)O` [Example 3, 2-Ethyl-4-[2-(4-trifluoromethylphenyl)-2H-indazol-7-ylmethylsulfanyl]phenoxyacetic Acid] yielded a melting point of 159 to 161 °C.

Turning to `O=C(O)Cc1cccc(SCc2cccc3cn(-c4ccc(C(F)(F)F)cc4)nc23)c1` [Example 4, 3-[2-(4-Trifluoromethylphenyl)-2H-indazol-7-ylmethylsulfanyl]phenylacetic Acid], the melting point fell in the range of 147 to 149 °C.

`O=C(O)Cc1csc2cc(SCc3cccc4cn(-c5ccc(C(F)(F)F)cc5)nc34)ccc12` [Example 5, 6-[2-(4-Trifluoromethylphenyl)-2H-indazol-7-ylmethylsulfanyl]benzo[b]thiophen-3-ylacetic Acid]: the melting point lay within 141 to 143 °C.

`Cc1cc(OCc2cccc3cn(-c4ccc(C(F)(F)F)cc4)nc23)ccc1CCC(=O)O` [Example 6, 3-{2-Methyl-4-[2-(4-trifluoromethylphenyl)-2H-indazol-7-ylmethoxy]phenyl}propionic Acid]: the melting point was 133 to 135 °C.

In the case of `CCc1cc(OCc2cccc3cn(-c4ccc(C(F)(F)F)cc4)nc23)ccc1CCC(=O)O` [Example 7, 3-{2-Ethyl-4-[2-(4-trifluoromethylphenyl)-2H-indazol-7-ylmethoxy]phenol}propionic Acid], the melting point was 157 to 159 °C.

The term melting point denotes the temperature, or range, at which the solid turns liquid.
